The values that follow come from patent publication US20100167335A1, “METHODS FOR DIAGNOSING AND TREATING ALLERGIES” (The Research Foundation of State University of New York, priority 2008, published 2010).

Common to all, as to assay type: cell-based, human
Assay [1] relates to PBMC from allergic asthmatics infected with C. pneumoniae. Description: In vitro IgE release by PBMC cultures infected with C. pneumoniae MOI 0.1, day 10 (Example 3). The method, then:
(§1) Peripheral blood (15 mL total) was obtained from patients and controls in ethylenediaminotetraacetic (EDTA) tubes. PBMC were isolated from whole blood on Ficoll-Paque (GE Healthcare, Sweden) and then washed in RPMI 1640 with 10% fetal bovine serum (FBS), and resuspended in complete RPMI 1640 (c-RPMI). C-RPMI contained RPMI-1640 Medium HEPES Modification supplemented by L-glutamine 5 mM and 10% FBS. Cells were counted and cell viability evaluated with trypan blue dye using a hemocytometer. PBMC (1.5×10^6/mL) were cultured in duplicate in 24 flat bottom well plates (1 ml/well) for up to 12 days in absolute humidification and 5% CO2. Cell viability at 0, 48 and 240 hours was >95%. Following a 2 h incubation to allow adherance PBMC cultures were infected or stimulated in the presence or absence of doxycycline. Doxycycline was reconstituted in a 1× sterile Dulbecco's Phosphate Buffered Saline (PBS).
(§2) PBMC were infected by adding purified EB at a multiplicity of infection (MOI) of 0.01-5 for 1 hour, followed by further incubation in the presence or absence of doxycycline, at 0.01, 0.1, 1.0 μg/mL, for 2 and 10 days p.i. at 37.0° C. in complete medium in a humidified 5% CO2 atmosphere. The time points 2 d (for cytokines) and 10 d p.i. […] Adherent cells were stained with monoclonal genus specific antibodies to confirm and quantify infection with C. pneumoniae at 72 h post infection. Identical volumes of inactivated C. pneumoniae were added in some experiments. C. pneumoniae was inactivated by incubation in a 56° C. water bath for 30 minutes. […]
Doxycycline at a concentration of 1 μg/ml was added to PBMC cultures after one hour incubation with C. pneumoniae MOI of 0.1. […] In FIG. 5, the data is expressed as percent control (PBMC day 10 p.i.); the mean change was 48% decrease; p=0.043. In FIG. 6, the data is expressed as mean IgE±SD (ng/ml) in cultures with the following conditions: uninfected cells (Naïve); Cpn MOI=0.1; Cpn MOI=0.1 and doxycycline […]; Cpn MOI of 1.0 and heat inactivated Cpn.

Assay [2] has as its system IL-4 in PBMC culture from serum IgE+ allergic asthmatics. Put plainly: IL-4 release by PBMC cultures infected with C. pneumoniae MOI 0.1 (Example 3). The method, then:
as §1, §2
(§3) In order to characterize the contribution of different T lymphocyte subpopulations to in vitro IgE production, cytokine concentration in infected and uninfected PBMC cultures were analyzed and determined. […]
(§4) To determine the effect of doxycycline on cytokine release by PBMC, doxycycline (0.01-1.0 ng/ml) was added to culture following infection with C. pneumoniae (MOI=0.1). […] In FIG. 8, the data is expressed as a percent control (PBMC day 10 p.i.), 100% is the mean highest response to Cpn; *P<0.05 for doxycycline treated cultures versus no doxycycline.

The subject of assay [3] is IFN-γ in PBMC culture from serum IgE+ allergic asthmatics. Description: IFN-γ release by PBMC cultures infected with C. pneumoniae MOI 0.1 (Example 3). The conditions noted are these: for IFN-γ level, mean % change: p=NS. The method, then:
as §1, §2, §3, §4

Regarding `C[C@H]1c2cccc(O)c2C(=O)C2=C(O)[C@]3(O)C(=O)C(C(N)=O)=C(O)[C@@H](N(C)C)[C@@H]3[C@@H](O)[C@@H]21` [doxycycline], the “mean change of IgE response, decrease (FIG. 5, percent control)” value in assay [1] (FIG. 5, individual subjects n=5, PBMC day 10 p.i., Cpn MOI=0.1, p=0.043) is 48%. The “suppression of IgE responses (average)” value in assay [1] (doxycycline 1 μg/ml added after 1 h incubation with C. pneumoniae MOI 0.1, day 10, p=0.043) was 42%. For the same compound, the “IgE in PBMC culture” value in assay [1] (doxycycline 1 μg/ml, C. pneumoniae MOI 0.1, day 10, versus 5.9±6.0 ng/ml without doxycycline) is 3.4 ± 3.9 ng/mL. Also, the “IL-4 level, mean % decrease” value in assay [2] (doxycycline 1 ng/ml, day 2 (48 h), p=0.018) amounted to 30±14%. The “IL-4 level, mean % change” value is given as −45±33% in assay [2] (doxycycline 0.01 μg/ml, p=0.018) and −60±13% in assay [2] (doxycycline 0.1 μg/ml, p<0.05). Moreover, the “IFN-γ level, mean % decrease” value in assay [3] (doxycycline 1 ng/ml, day 2 (48 h), p=0.043) turned out to be 43±27%. The figures for the “IFN-γ level, mean % change” value in assay [3] (doxycycline 0.01 μg/ml) and in assay [3] (doxycycline 0.1 μg/ml) were 5%±11 and −1%±18, respectively.
